# According to publication PMC7918931 (Viruses, 2021):
# Assays:
# [1] = test system: SMURF2 WW domain #3 (SMURF2-3); assay type: binding
# [2] = test system: ~115 known WW domains (GST-fusion proteins); assay type: binding, mammalian
# GST-SMURF2-WW3 = GST-SMURF2-WW3 (Homo sapiens, UniProt Q9HAU4); assay type: binding; details: pH 7.4
# GST-SMURF2-WW3, sequence (Q9HAU4 297-330): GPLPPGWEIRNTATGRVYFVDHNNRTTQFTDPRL
smiles,measurement,setting,value
CC[C@H](C)[C@H](NC(=O)[C@H](C)NC(=O)[C@H](CCC(=O)O)NC(=O)[C@H](CCSC)NC(=O)[C@H](Cc1ccc(O)cc1)NC(=O)[C@H](CCC(=O)O)NC(=O)[C@@H]1CCCN1C(=O)[C@@H]1CCCN1C(=O)[C@H](C)NC(=O)[C@@H](NC(=O)[C@@H]1CCCN1C(=O)[C@H](CC(C)C)NC(=O)[C@@H](NC(=O)[C@@H](NC(=O)[C@H](CCCNC(=N)N)NC(=O)[C@H](CCCNC(=N)N)NC(=O)[C@@H](N)CCSC)C(C)C)[C@@H](C)CC)[C@@H](C)O)C(=O)N[C@@H](CCCCNC(=O)CCCC[C@@H]1SC[C@@H]2NC(=O)N[C@@H]21)C(=O)O [eVP40-WT peptide],interaction with SMURF2 WW domain #3 on array,[1],positive interaction
same,interaction with host WW domains on array,[2],interacted with a select number of host WW domains
same,Bmax,GST-SMURF2-WW3,39 RU
